Tests used:
[1] = tested on: BaF3 FGFR2-BICC1 V564F cells; test: CellTiter-Glo cell proliferation inhibition, BaF3 FGFR2-BICC1 V564F; type: cell-based; conditions: Mus musculus, 72 h, read-out: BaF3 FGFR2-BICC1 V564F inhibitory activity IC50
Protocol: To evaluate inhibitory effects of the compounds on the proliferation of NCI-H716, SNU-16 and BaF3-FGFR2-BICC1 V564F cells by cell proliferation inhibition experiments.
CellTiter-Glo method was used to detect inhibitory effects of the compounds on the proliferation of NCI-H716, SNU-16 and BaF3 FGFR2-BICC1 V564F cells. The highest detection concentration of the compounds was 1000 nM, which was diluted in 3 folds, with a total of 9 concentrations (1000 nM to 0.15 nM). After the cells were plated at an appropriate density, compounds were added the next day and incubated for 72 h before detection using the […] detection kit.
(§1) 1) Inhibition rate (%): Inhibition rate %=[(mean value in positive control well−value in sample well)/(mean value in positive control well−mean value in negative control well)]×100, wherein the positive control well was a reaction well without a compound […], and the negative control well was a reaction wells without an enzyme.
(§2) 2) Curve fitting: Log(inhibitor) vs. response—Variable slope (four parameters) in GraphPad Prism 6 was used for fitting equation analysis of the compound concentration and the corresponding inhibition rate, and the curve was fitted to obtain the IC50 values of the compounds.

FGFR2 V564F = FGFR2 V564F (Homo sapiens (Human), UniProt P21802, V564F); test: TR-FRET kinase inhibition assay, FGFR2 V564F; type: biochemical; conditions: ATP Km concentration (20 μM)
Protocol: (§3) To measure the IC50 values of the compounds against FGFR1, FGFR2, FGFR3, FGFR4, and FGFR2 V564F at ATP Km concentrations by TR-FRET method.
(§4) TR-FRET (time-resolved fluorescence resonance energy transfer) method was used to detect the inhibitory activity of the compounds on FGFR1, FGFR2, FGFR3, FGFR4, and FGFR2 V564F kinase region fragments. The highest detection concentration of the compounds in 5 kinase experiments was 1000 nM, which was diluted in 3 folds, with a total of 11 concentrations (1000 nM to 0.017 nM). A kinase buffer (50 mM HEPES pH 7.5, 1 mM EGTA, 10 mM MgCl2, 2 mM DTT, and 0.01% Tween-20) was used to prepare 4× enzyme solution, 4× compound solutions diluted in gradient, and a 2×ATP/Peptide substrate solution. To a 384-well plate, 2.5 μL of enzyme solution and 2.5 μL of diluted […] compound solution were added, and 5 μL of 2×ATP/Peptide substrate solution was then added. After reacting at room temperature for 60 minutes for FGFR1, FGFR2, FGFR3, and FGFR2 V564F kinases, and 120 minutes for FGFR4 kinase, 10 μL of a 2× termination and detection mixed liquid prepared with 1×LANCE detection buffer with an EDTA concentration of 20 mM and a Europium-anti-phosphotyrosine (PT66) concentration of 2 nM was added to each well of the plate. After reacting at room temperature for 60 minutes for FGFR1, FGFR2, FGFR3, and FGFR4, and 30 minutes for FGFR2 V564F, the fluorescence signal value in each well of the plate was measured by a microplate reader.
as §1, with “(%): Calculation was performed on the raw data (665 nm/620 nm reading ratio) according to the following formula to obtain the inhibition rate.” for “(%):”
as §2

FGFR2 = FGFR2 (Homo sapiens (Human), UniProt P21802); test: TR-FRET kinase inhibition assay, FGFR2; type: biochemical; conditions: ATP Km concentration (30 μM)
Protocol: as §3, §4
as §1, with “(%): Calculation was performed on the raw data (665 nm/620 nm reading ratio) according to the following formula to obtain the inhibition rate.” for “(%):”
as §2

FGFR1 = FGFR1 (Homo sapiens (Human), UniProt P11362); test: TR-FRET kinase inhibition assay, FGFR1; type: biochemical; conditions: ATP Km concentration (30 μM)
Protocol: as §3, §4
as §1, with “(%): Calculation was performed on the raw data (665 nm/620 nm reading ratio) according to the following formula to obtain the inhibition rate.” for “(%):”
as §2

[2] = Pharmacokinetic experiment in SD rats after oral administration; type: in vivo; conditions: 5 mg/kg, plasma
Protocol: To study the pharmacokinetic behavior of the compounds of the present invention in the rat body (plasma) after oral administration at a dose of 5 mg/kg using SD rats as test animals.
3 SD rats/group, male, from Shanghai Jiesijie Experimental Animal Co., Ltd., animal production license number (SCXK (Shanghai) 2013-0006 N0.311620400001794).
PO, 10% solutol HS15-0.5% CMC-Na was dissolved by ultrasound and prepared into a clear solution or homogeneous suspension.
3 SD rats/group, male; p.o. respectively at a dose of 5 mg/kg and an administration volume of 10 mL/kg after the […] were fasted overnight.
After oral administration to rats, at 0.25, 0.5, 1, 2, 4, 6, 8 and 24 hours, 0.2 mL of blood was collected from the jugular vein, placed in an EDTA-K2 test tube, centrifuged at 6000 rpm for 6 min at 4° C. to separate the plasma, which was stored at −80° C.
1) 100 μL of acetonitrile was added to 20 μL of plasma sample for pelleting, and it was mixed and centrifuged at 3500×g for 5-20 min.
2) The treated supernatant solution was taken and subjected to LC/MS/MS to analyze the concentrations of the test compounds. LC/MS/MS analysis instrument: AB Sciex API 4000 Qtrap.
• Liquid phase conditions: Shimadzu LC-20AD pump • Chromatographic column: Waters Xbridge C18 5 μm, 4.6×50 mm mobile phase: liquid A was 0.1% aqueous formic acid solution, and liquid B was methanol • Flow rate: 1.0 mL/min • Elution time: 0-4.0 min, the eluent was as follows: […]

Sequence of FGFR2 V564F (P21802 481-770 V564F): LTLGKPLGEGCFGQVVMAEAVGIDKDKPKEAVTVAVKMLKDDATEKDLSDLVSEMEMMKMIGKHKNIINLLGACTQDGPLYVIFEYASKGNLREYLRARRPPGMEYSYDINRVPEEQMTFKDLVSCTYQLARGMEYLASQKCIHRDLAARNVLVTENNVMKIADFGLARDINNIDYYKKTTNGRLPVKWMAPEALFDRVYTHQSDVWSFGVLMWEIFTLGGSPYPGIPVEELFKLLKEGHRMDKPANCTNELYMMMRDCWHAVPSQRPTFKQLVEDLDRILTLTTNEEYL
Sequence of FGFR2 (P21802 481-770): as the sequence (P21802 481-770 V564F) above, with F84V counted along it
Sequence of FGFR1 (P11362 478-767): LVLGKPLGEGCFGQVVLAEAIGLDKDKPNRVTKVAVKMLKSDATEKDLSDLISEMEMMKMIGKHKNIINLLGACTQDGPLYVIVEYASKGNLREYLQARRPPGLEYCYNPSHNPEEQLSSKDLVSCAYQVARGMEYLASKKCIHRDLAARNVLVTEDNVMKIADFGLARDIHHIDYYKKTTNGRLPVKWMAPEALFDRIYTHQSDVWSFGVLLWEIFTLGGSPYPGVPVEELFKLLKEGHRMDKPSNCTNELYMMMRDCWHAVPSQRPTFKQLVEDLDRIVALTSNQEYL

SMILES | IC50 [1] [nM] | IC50 (FGFR2 V564F) [nM] | IC50 (FGFR2) [nM] | also measured
C=CC(=O)N1CC[C@H](n2nc(C#Cc3cc4ncn(C)c4cc3F)c3c(N)nccc32)C1 [A, reference compound] | 7.4 | 6.1 | 12.8 | –
C=CC(=O)N1CC[C@H](n2nc(C#Cc3ccc4oc(C5CC5)nc4c3)c3c(N)ncnc32)C1 [B, reference compound] | 11.5 | 18.4 | – | –
C=CC(=O)N1CC[C@H](n2nc(C#Cc3cc4ncn(C)c4cc3F)c3c(N)ncc(-c4cscn4)c32)C1 [Example 14, 1-[(3S)-3-[4-amino-3-[2-(6-fluoro-1-methyl-benzo[d]imidazol-5-yl)ethynyl]-7-thiazol-4-yl-pyrazolo[4,3-c]pyridin-1-yl]pyrrolidin-1-yl]-2-propen-1-one] | – | 1.3 | 2.4 | –
C=CC(=O)N1CC[C@H](n2nc(C#Cc3cc4ncn(C)c4cc3F)c3c(N)ncc(C4CC4)c32)C1 [Example 20, (S)-1-(3-(4-amino-7-cyclopropyl-3-((6-fluoro-1-methyl-1H-benzo[d]imidazol-5-yl)ethynyl)-1H-pyrazolo[4,3-c]pyridin-1-yl)pyrrolidin-1-yl)prop-2-en-1-one] | – | 2.8 | – | –
C=CC(=O)N1CC[C@H](n2nc(C#Cc3ccc4c(c3)ncn4C3CC3)c3c(N)ncc(C(=O)C(C)C)c32)C1 [Example 40] | – | 1.9 | – | –
C=CC(=O)N1CC[C@H](n2nc(C#Cc3ccc4c(c3)ncn4C3CC3)c3c(N)ncc(-c4ccn(C)n4)c32)C1 [Example 42, (S)-1-(3-(4-amino-3-((1-cyclopropyl-1H-benzo[d]imidazol-5-yl)ethynyl)-7-(1-methyl-1H-pyrazol-3-yl)-1H-pyrazolo[4,3-c]pyridin-1-yl)pyrrolidine-1-methyl)prop-2-en-1-one] | – | 3.9 | – | –
C=CC(=O)N1CC[C@H](n2nc(C#Cc3cc4ncn(C5CC5)c4cc3Cl)c3c(N)ncc(-c4ccn(C)n4)c32)C1 [Example 43, (S)-1-(3-(4-amino-3-((6-chloro-1-cyclopropyl-1H-benzo[d]imidazol-5-yl)ethynyl)-7-(1-methyl-1H-pyrazol-3-yl)-1H-pyrazolo[4,3-c]pyridin-1-yl)pyrrolidin-1-yl)prop-2-en-1-one] | – | 1.1 | – | –
C=CC(=O)N1CC[C@H](n2nc(C#Cc3cc4ncn(C5CC5)c4cc3F)c3c(N)ncc(C)c32)C1 [Example 51, (S)-1-(3-(4-amino-3-((1-cyclopropyl-6-fluoro-1H-benzo[d]imidazol-5-yl)ethynyl)-7-methyl-1H-pyrazolo[4,3-c]pyridin-1-yl)pyrrolidin-1-yl)prop-2-en-1-one] | – | 3.3 | – | –
C=CC(=O)N1CC[C@H](n2nc(C#Cc3cc4ncn(C5CC5)c4cc3F)c3c(N)ncc(C4CC4)c32)C1 [Example 52, (S)-1-(3-(4-amino-7-cyclopropyl-3-((1-cyclopropyl-6-fluoro-1H-benzo[d]imidazol-5-yl)alkynyl)-1H-pyrazolo[4,3-c]pyridin-1-yl)pyrrolidin-1-yl)prop-2-en-1-one] | – | 1.8 | – | –
C=CC(=O)N1CC[C@H](n2nc(C#Cc3ccc4c(c3)nc(C)n4C3CC3)c3c(N)ncc(C(C)=O)c32)C1 [Example 53, (S)-1-(3-(7-acetyl-4-amino-3-((1-cyclopropyl-2-methyl-1H-benzo[d]imidazol-5-yl)ethynyl)-1H-pyrazolo[4,3-c]pyridin-1-yl)pyrrolidin-1-yl)prop-2-en-1-one] | 4.9 | 1.9 | 3.5 | –
C=CC(=O)N1CC[C@H](n2nc(C#Cc3ccc4c(c3)ncn4CC)c3c(N)ncc(C(=O)C(C)C)c32)C1 [Example 59] | 4 | 1.1 | 3.4 | –
C=CC(=O)N1CC[C@H](n2nc(C#Cc3cc4ncn(CC)c4cc3F)c3c(N)ncc(-c4cscn4)c32)C1 [Example 62, (S)-1-(3-(4-amino-3-((1-ethyl-6-fluoro-1H-benzo[d]imidazol-5-yl)ethynyl)-7-(thiazol-4-yl)-1H-pyrazolo[4,3-c]pyridin-1-yl)pyrrolidin-1-yl)prop-2-en-1-one] | – | 1.2 | 2.4 | –
C=CC(=O)N1CC[C@H](n2nc(C#Cc3cc4ncn(C)c4cc3Cl)c3c(N)ncc(C(C)=O)c32)C1 [Example 67, (S)-1-(3-(7-acetyl-4-amino-3-((6-chloro-1-methyl-1H-benzo[d]imidazol-5-yl)ethynyl)-1H-pyrazolo[4,3-c]pyridin-1-yl)pyrrolidin-1-yl)prop-2-en-1-one] | 1.6 | 1.6 | – | –

Compounds with a lower IC50 (FGFR2 V564F), results first:

IC50 [1] [nM] | IC50 (FGFR2 V564F) [nM] | IC50 (FGFR2) [nM] | SMILES | also measured
0.5 | 1 | – | C=CC(=O)N1CC[C@H](n2nc(C#Cc3cc4ncn(C5CC5)c4cc3Cl)c3c(N)ncc(C(=O)C(C)C)c32)C1 [Example 47] | –
2.1 | 1 | 2.6 | C=CC(=O)N1CC[C@H](n2nc(C#Cc3cc4ncn(C5CC5)c4cc3F)c3c(N)ncc(C(=O)C(C)C)c32)C1 [Example 50] | –
– | 0.8 | 1.6 | C=CC(=O)N1CC[C@H](n2nc(C#Cc3cc4ncn(CC)c4cc3F)c3c(N)ncc(-c4nccs4)c32)C1 [Example 22, (S)-1-(3-(4-amino-3-((1-ethyl-6-fluoro-1H-benzo[d]imidazol-5-yl)ethynyl)-7-(thiazol-2-yl)-1H-pyrazolo[4,3-c]pyridin-1-yl)pyrrolidin-1-yl)prop-2-en-1-one] | IC50 (FGFR1): 6.5 nM
1.4 | 0.8 | 1.7 | C=CC(=O)N1CC[C@H](n2nc(C#Cc3cc4ncn(C5CC5)c4cc3F)c3c(N)ncc(C(=O)CC)c32)C1 [Example 48, (S)-1-(3-(4-amino-3-((1-cyclopropyl-6-fluoro-1H-benzo[d]imidazol-5-yl)ethynyl)-7-propionyl-1H-pyrazolo[4,3-c]pyridin-1-yl)pyrrolidin-1-yl)prop-2-en-1-one] | AUC(0-t) ([2]; male, Sprague-Dawley (SD), rat, po, read-out: Area under the curve AUC0-t): 4120 ng·h/mL; AUC(0-inf) ([2]; male, Sprague-Dawley (SD), rat, po, read-out: Area under the curve AUC0-∞): 4150 ng·h/mL; half-life ([2]; male, Sprague-Dawley (SD), rat, po, read-out: Half-life t1/2 (converted)): 3.9 h; MRT ([2]; male, Sprague-Dawley (SD), rat, po, read-out: Mean residence time MRT): 4.2 h; Cmax ([2]; male, Sprague-Dawley (SD), rat, po, read-out: Plasma concentration Cmax): 795 ng/mL; Time to peak tmax ([2]; p.o.): 2 h
3.5 | 0.7 | 1.8 | C=CC(=O)N1CC[C@H](n2nc(C#Cc3ccc4c(c3)ncn4CC)c3c(N)ncc(C(C)=O)c32)C1 [Example 56, (S)-1-(3-(7-acetyl-4-amino-3-((1-ethyl-1H-benzo[d]imidazol-5-yl)ethynyl)-1H-pyrazolo[4,3-c]pyridin-1-yl)pyrrolidine-1-methyl)prop-2-en-1-one] | –

Reference: patent US20250152564A1, “PROPYLENE KETONE-CONTAINING BIOINHIBITOR, PREPARATION METHOD THEREFOR, AND USE THEREOF” (SHANGHAI HANSOH BIOMEDICAL CO., LTD., priority 2022, published 2025)
